Assay results reported in patent EP2815749A1, “Solid form of 4-amino-2-(2,6-dioxopiperidine-3-yl)isoindoline-1,3-dione having specified X-ray diffraction pattern” (IP Gesellschaft für Management mbH, priority 2013, dated 2014).
Where a name gives a salt, the structure may show the parent alone. Read-outs that look alike come from different tables or passages of the source.

Tests used:
[1] = Desolvation of solvate forms of Compound (VII); assay type: physicochemical
Procedure: Polymorph screening: A polymorph screen was conducted in the methylethyl ketone (MEK)/ water solvent systems, as well as in the acetonitrile (ACN), ACN/water and isopropyl acetate solvent systems. Polymorph screening techniques included crash cooling, solvent evaporation, antisolvent addition, and slurry experiments. Slurry experiments were performed on an IKA RCT hot plate with magnetic stirring set to 710 rpm. The temperature was controlled with an IKA ETS-D5 thermocouple. Solvent volumes were measured and transferred with Gibson Pipetteman volumetric pipettes. New forms that were identified as solvates were subjected to desolvation under two potential conditions: (1) drying in a vacuum oven at 40°C and (2) sitting undisturbed under ambient conditions in a fume hood. Physical characterization of all forms proceeded by X-ray powder diffraction (XRPD) and thermogravimetric analysis (TGA).
Experiment 6: Desolvation: New forms of Compound (VII) obtained in the polymorph screen suspected of being solvates were subjected to further form investigation through attempted desolvation. Forms D, E, F, G, H, I, J, K, L and Hydrate A were left to stand open to the atmosphere under ambient conditions and or were placed in a vacuum oven. […] Forms D and K produced new crystalline XRPD patterns following desolvation. […] In some embodiments, Form R ({drug7p}) is characterized by one or more peaks in an XRPD spectrum selected from the peaks listed in Table 20. Form R ({drug7p}) Peak List:
In some embodiments, Form S ({drug7q}) is characterized by one or more peaks in an XRPDspectrum selected from the peaks listed in Table 21.

[2] = Equilibration and form conversion experiments of Compound of formula (V); assay type: physicochemical; settings: for Form by XRPD after equilibration: Ambient, 8 days
Procedure: Equilibration: Equilibration studies using single, binary and ternary combinations of batch solvents (water, acetone, and acetonitrile) were investigated to mimic key steps in manufacturing 3-(4-nitro-1-oxoisoindolin-2-yl)piperidine-2,6-dione. Materials of 3-(4-nitro-1-oxoisoindolin-2-yl)piperidine-2,6-dione and solvent or solvent mixtures were added to a glass vial to achieve free-flowing slurry and allowed to equilibrate at the specified temperature. After equilibration for 8 days, the solid phase was separated via filtration. The solid phase was then dried under air and analyzed by XRPD. List of Experimental Conditions for Equilibration:
A total of four batches of 3-(4-nitro-1-oxoisoindolin-2-yl)piperidine-2,6-dione were characterized by XRPD, DSC, TGA, ATR-FTIR and DVS, as described in section 6.5. The solid form represented by the batch 1 was designated as Form A ({drug5b}); the solid form represented by the batch 4 was designated as Form B ({drug5c}); the batches 2 and 3 were determined to be mixtures of Forms A and B, with Form B ({drug5c}) dominating the patterns. The equilibration experiments were performed using batches 2, 3 and 4, and the results are described in Table 2. Results for Equilibration Experiments:
Results from Additional Form conversion Experiments: […]

[3] = Hygroscopicity of forms of Compound of formula (V) (DVS); assay type: physicochemical; settings: between 0% and 90% relative humidity; 25°C
Procedure: Differential Scanning Calorimetry (DSC): DSC analyses were performed on a TA instrument Q2000 Differential Scanning Calorimeter. Indium was used as the calibration standard. Approximately 2-5 mg of sample was placed into a DSC pan. The sample was heated under nitrogen at a rate of 10°C/min, up to a final temperature of 350°C. Melting points were reported as the extrapolated onset temperatures. Thermogravimetric Analysis (TGA): TGA analyses were performed on a TA instrument Q5000 Thermogravimetric Analyzer. Calcium oxalate was used for a performance check. Approximately 2-10 mg of accurately weighed sample was placed on a pan and loaded into the TGA furnace. The sample was heated under nitrogen at a rate of 10°C/min, up to a final temperature of 300°C. Attenuated Total Reflection Fourier-Transform Infrared Analysis (ATR-FTIR): FTIR analyses were performed on the samples "as is" using an attenuated total reflection (ATR) attachment on a Nicolet 6700 FTIR spectrometer. After a background of ambient lab conditions was obtained, samples were placed on the ATR, compressed with the anvil, and spectrum acquired. Miniature Scanning Electron Microscope (Mini SEM) Morphology analysis of the samples was carried out on an Even Mini SEM. Small amounts of samples were dispersed on a sample holder, and then coating with gold viewed with 200x and 1000x magnification. Dynamic Vapor Sorption (DVS) Hygroscopicity was determined on a Surface Measurement Systems DVS. Typically a sample size of 5-30 mg was loaded into the DVS instrument sample pan and the sample was analyzed on a DVS automated sorption analyzer at 25°C. The relative humidity was increased from 0 % to 90 %RH at 10 %RH step. The relative humidity was then decreased in a similar manner to accomplish a full adsorption/desorption cycle. The entire scope of this invention is not limited by the specific examples described herein, but is more readily understood with reference to the appended claims.

[4] = Equilibration and form conversion experiments of Compound of formula (V); assay type: physicochemical; settings: for Form by XRPD after equilibration: 6 hours
[5] = Salt screening and crystalline salt characterization of Compound (VI); settings: for Hygroscopicity: ambient temperature and relative humidity conditions
Procedure: The screening examined acid type, acid level (equivalents), and/or type of crystallization solvent. Each plate contained 96 well plates (8 rows of 12 columns per plate). […] The solution (12.5 mL) was transferred to 24 vials. To each vial was added 0.25 M EtOH stock solutions of the following acids:
The content of each vial was transferred to 12 crystallization wells and evaporated to dryness. Upon evaporation, each well was charged with 100 µl of solvent using a robotic liquid handler. The following crystallization solvents were tested: methyl isobutyl ketone (MIBK), ethyl acetate, toluene, THF, acetonitrile, acetone, isopropanol, ethanol, methanol, 1,2-dichloroethylene, isopropanol/water (50:50), and water. Next, the plates were sealed with Teflon septa and subjected to temperature cycling. […] After the heating/cooling cycle, the contents of the wells were characterized by birefringent imaging. Perceived crystalline hits were further characterized by PXRD analysis.

[6] = water; listed as free base
Procedure: Hygroscopicity: Sorption/desorption isotherms were measured using the VT1100 humidity microbalance (VTI Corporation, Hialeah, FL, USA). Measurements were carried out at 25°C. Samples were dried under N2 flow at 25°C. […] Concentration in supernatant was measured by gravimetry for organic solvents and by HPLC from aqueous solvents and propylene glycol.

physchem = settings: thermodynamic from solid

In the case of CC(C)(C)c1cc(C(C)(C)C)c(NC(=O)c2c[nH]c3ccccc3c2=O)cc1O [Form E ({drug7c}), N-[2,4-bis(1,1-dimethylethyl)-5-hydroxyphenyl]-1,4-dihydro-4-oxoquinoline-3-carboxamide], the “XRPD pattern after attempted desolvation” value ([1]; standing under ambient conditions and sitting in the vacuum oven) is reported as “same XRPD patterns”.
For O=C1CCC(N2Cc3c(cccc3[N+](=O)[O-])C2=O)C(=O)N1 (centres unmarked) [Form B ({drug5c}), 3-(4-nitro-1-oxoisoindolin-2-yl)piperidine-2,6-dione], the “Form by XRPD after equilibration” value ([2]; Acetone/water (1:1)) was “converts to Form A”, the “Form by XRPD after equilibration” value ([2]; Acetonitrile/water (1:1)) was “converts to Form A” and the “Form by XRPD after equilibration” value ([2]; Acetonitrile/water/acetone (1:1:1)) was “converts to Form A”. The “Form by XRPD after equilibration” value ([2]; acetone) was “converts to Form A”, the “Form by XRPD after equilibration” value ([2]; water) was “converts to Form A” and the total mass change [3] was 0.39%. For the same molecule, the “Form by XRPD after equilibration” value ([4]; Acetonitrile, 80 °C (or reflux)) was “converts to Form A”, the “Form by XRPD after equilibration” value ([4]; Acetonitrile/water (2:1), 60 °C) was “converts to Form A” and the “XRPD Result after form conversion experiment” value (“XRPD Result” below) ([4]; Heated to 220 °C for 4 hours) was “converts to Form A”.
With O=C1CCC(N2Cc3c(cccc3[N+](=O)[O-])C2=O)C(=O)N1 (centres unmarked) [Form A ({drug5b}), 3-(4-nitro-1-oxoisoindolin-2-yl)piperidine-2,6-dione] the “Form conversion to other forms” value ([2]; form conversion studies) was “no conversion” and the total mass change [3] was 0.42%.
In the case of CC(C)(C)c1cc(C(C)(C)C)c(NC(=O)c2c[nH]c3ccccc3c2=O)cc1O [Form D ({drug7b}), N-[2,4-bis(1,1-dimethylethyl)-5-hydroxyphenyl]-1,4-dihydro-4-oxoquinoline-3-carboxamide], the “XRPD pattern after attempted desolvation” value ([1]; ambient conditions and vacuum oven for approximately 1 month) is reported as “converted to a new crystalline form of Compound (VII) designated Form R”.
In the case of Cl [Hydrochloric acid], the Hygroscopicity [5] is reported as “Crystalline salt; crystals were hygroscopic at ambient temperatures and relative humidity conditions; crystalline salt samples included multiple hydration states and multiple crystalline forms. Solid state NMR indicated that prepared samples contained mixture of crystalline phases” and the Hygroscopicity ([5]; listed as hydrochloric acid salt) is reported as “hygroscopic”.
With NC1(C(=O)N[C@@H](CCO)c2ccc(Cl)cc2)CCN(c2ncnc3[nH]ccc23)CC1 [Form C, (S)-4-amino-N-(1-(4-chlorophenyl)-3-hydroxypropyl)-1-(7H-pyrrolo[2,3-d]pyrimidin-4-yl)piperidine-4-carboxamide] the “XRPD Result” value ([4]; Heated to 220 °C for 4 hours) was “Form A+C”, the “XRPD Result” value ([4]; Slurry in NMP/Acetone/water at ambient for 5 days) was “Form A+C” and the “XRPD Result” value ([4]; Slurry in NMP/Acetone/water at ambient for 10 days) was “Form A+C”.
In the case of CC(C)(C)c1cc(C(C)(C)C)c(NC(=O)c2c[nH]c3ccccc3c2=O)cc1O [Form K ({drug7i}), N-[2,4-bis(1,1-dimethylethyl)-5-hydroxyphenyl]-1,4-dihydro-4-oxoquinoline-3-carboxamide], the “XRPD pattern after attempted desolvation” value ([1]; ambient conditions and vacuum oven for 2 months) is reported as “converted to a new crystalline form of Compound (VII) designated Form S”.
With Fumaric acid the “water content of samples” value ([5]; >25% relative humidity) was ~6 wt. %, the Hygroscopicity [5] was “hygroscopic at ambient temperature and relative humidity conditions” and the Hygroscopicity ([5]; listed as fumaric acid salt) was “hygroscopic”.
In the case of O=C1CCC(N2Cc3c(cccc3[N+](=O)[O-])C2=O)C(=O)N1 (centres unmarked) [Form C ({drug5d}), 3-(4-nitro-1-oxoisoindolin-2-yl)piperidine-2,6-dione], the total mass change [3] is reported as 0.43%, the “XRPD Result” value ([4]; Heated to 220 °C for 4 hours) is reported as “partially converts to Form A” and the Form conversion ([4]; ambient temperature, NMP/acetone/water (1:2.5:2.5), time not stated) is reported as “converts to Form A”.
With N#Cc1ccc([C@H]2CCc3cncn32)c(F)c1 [Compound (III), 4-(R)-(6,7-Dihydro-5H-pyrrolo[1,2-c]imidazol-5-yl)-3-fluoro-benzonitrile] the “Solubility in water at the 0.1% target concentration” value [6] was “largely insoluble”, the solubility (physchem; acetone, 25 °C, organic solvent or mixture) was > 50 mg/mL and the solubility (physchem; aqueous solvent, pH 1, 25 °C, pH 1, simulated gastric fluid, pH 1) was > 50 mg/mL. For the same molecule, the solubility (physchem; ethanol, 25 °C, organic solvent or mixture) was > 50 mg/mL, the solubility (physchem; ethyl acetate, 25 °C, organic solvent or mixture) was > 50 mg/mL and the Moisture gain (r.h. 0%) was 0.0%. The Moisture gain (r.h. 5%) was 0.0%, the Moisture gain (r.h. 25%, listed as free base) was 0.1% and the Moisture gain (r.h. 50%, listed as free base) was 0.2%. The Moisture gain (r.h. 75%, listed as free base) was 0.3%, the Moisture gain (r.h. 85%, listed as free base) was 0.5% and the Moisture gain (r.h. 95%, listed as free base) was 1.0%.
For CC(C)(C)c1cc(C(C)(C)C)c(NC(=O)c2c[nH]c3ccccc3c2=O)cc1O [Form H ({drug7f}), N-[2,4-bis(1,1-dimethylethyl)-5-hydroxyphenyl]-1,4-dihydro-4-oxoquinoline-3-carboxamide], the “XRPD pattern after attempted desolvation” value ([1]; ambient conditions for one month) was “same Form H” and the “XRPD pattern after attempted desolvation” value ([1]; vacuum oven for one month) was “converted to a semi-crystalline form”.
In the case of Citric acid, the Hygroscopicity [5] is reported as “Crystalline salt; hygroscopic at ambient temperature and relative humidity conditions. PXRD patterns of slurry and dried material did not match” and the Hygroscopicity ([5]; listed as citric acid salt) is reported as “hygroscopic”.
For CC(C)(C)c1cc(C(C)(C)C)c(NC(=O)c2c[nH]c3ccccc3c2=O)cc1O [Form G ({drug7e}), N-[2,4-bis(1,1-dimethylethyl)-5-hydroxyphenyl]-1,4-dihydro-4-oxoquinoline-3-carboxamide], the “XRPD pattern after attempted desolvation” value ([1]; vacuum oven for one month) was “became x-ray amorphous”.
With NC1(C(=O)N[C@@H](CCO)c2ccc(Cl)cc2)CCN(c2ncnc3[nH]ccc23)CC1 [Form B, (S)-4-amino-N-(1-(4-chlorophenyl)-3-hydroxypropyl)-1-(7H-pyrrolo[2,3-d]pyrimidin-4-yl)piperidine-4-carboxamide] the “XRPD Result” value ([4]; Heated to 220 °C for 4 hours) was “Form A”.
Molecule N#Cc1ccc([C@H]2CCc3cncn32)c(F)c1 [HCl, 4-(R)-(6,7-dihydro-5H-pyrrolo[1,2-c]imidazol-5-yl)-3-fluoro-benzonitrile, reference compound] has a Moisture gain (r.h. 25%) of 0.5%, a Moisture gain (r.h. 50%) of 0.2% and a Moisture gain (r.h. 75%) of 0.2%. For the same molecule, the Moisture gain (r.h. 85%) was 3.3% and the Moisture gain (r.h. 95%) was 23.6%.
For CC(C)(C)c1cc(C(C)(C)C)c(NC(=O)c2c[nH]c3ccccc3c2=O)cc1O [Form L ({drug7j}), N-[2,4-bis(1,1-dimethylethyl)-5-hydroxyphenyl]-1,4-dihydro-4-oxoquinoline-3-carboxamide], the “XRPD pattern after attempted desolvation” value ([1]; ambient conditions for two weeks) was “same Form L” and the “XRPD pattern after attempted desolvation” value ([1]; vacuum oven for 24 hours) was “converted to x-ray amorphous”.
